Reference: US8703776B2 (Cymabay Therapeutics, Inc., priority 2011, dated 2014)

Target: T1, human GPR131 (Homo sapiens, UniProt Q8TDU6)
T1 construct: expressed in transfected cells
T1 sequence (Q8TDU6 1-330): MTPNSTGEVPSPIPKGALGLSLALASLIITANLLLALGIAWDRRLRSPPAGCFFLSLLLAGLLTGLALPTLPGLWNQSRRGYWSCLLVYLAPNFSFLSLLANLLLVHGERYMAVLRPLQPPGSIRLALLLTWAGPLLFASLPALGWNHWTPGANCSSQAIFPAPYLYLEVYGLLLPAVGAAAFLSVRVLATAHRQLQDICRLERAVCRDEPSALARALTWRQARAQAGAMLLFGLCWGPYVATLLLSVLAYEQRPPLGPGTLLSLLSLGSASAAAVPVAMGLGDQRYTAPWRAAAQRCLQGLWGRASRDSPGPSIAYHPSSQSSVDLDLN
Test: Stimulation of cAMP in stable cell line expressing human GPR131 (FRET cAMP kit)
Type: cell-based
Conditions: 0.5 h; 1.1 μM compound, relative to maximal stimulatory activity of lithocholic acid at 3.3 μM; 30 minutes at 37° C.; read-out: Percent Activity @ 1.1 μM (of 3.3 uM LCA) (%)
Experimental: This assay was developed using a stable cell line expressing human GPR131.
To measure cAMP activity in response to GPR131 agonists, GPR131 cells suspended in DMEM/F12 medium with 1 mM IBMX were seeded in 384 well plates at 5000 cells per well. After incubating with test compounds at 37° C. for 30 minutes cAMP was measured using a fluorescene resonance energy transfer cAMP kit from Cis Bio (Bedford, Mass.) according to the manufacturer's instructions. Briefly, cells were lysed, and cAMP levels determined by competitive immunoassay using D2 labeled cAMP, and europium cryptate tagged anti cAMP antibody. Decreases in the FRET signal (fluorescence ratio (665 nm/620 […]) correspond to increases in intracellular cAMP levels.
Activities of test compounds in Table 1 below are expressed as % activity at 1.1 μM compound compared to the maximal stimulatory activity of lithocholic acid (LCA) (determined at 3.3 μM LCA)

| activation at 1.1 µM [%] | Compound |
| --- | --- |
| 87 | Cc1cc(CN(C)C(=O)c2cnc(I)n2-c2ccc(F)cc2)ccn1 [Compound 589, 1-(4-Fluorophenyl)-2-iodo-N-methyl-N-((2-methylpyridin-4-yl)methyl)-1H-imidazole-5-carboxamide] |
| 86 | Cc1nn(C)cc1CN(C)C(=O)c1cnc(Br)n1-c1ccc(F)cc1 [Compound 590, 2-Bromo-N-((1,3-dimethyl-1H-pyrazol-4-yl)methyl)-1-(4-fluorophenyl)-N-methyl-1H-imidazole-5-carboxamine] |
| 94 | COc1ccc(Cl)c(CSc2ncc(C(=O)N3CCCC3c3ccncc3)n2-c2ccc(F)cc2)c1F (stereo not shown) [Compound 591, (2-((6-Chloro-2-fluoro-3-methoxybenzyl)thio)-1-(4-fluorophenyl)-1H-imidazol-5-yl)(2-(pyridin-4-yl)pyrrolidin-1-yl)methanone] |
| 99 | Cc1nn(C)cc1CN(C)C(=O)c1cnc(SCc2ccccc2)n1-c1ccc(F)cc1 [Compound 593, 2-(Benzylthio)-N-((1,3-dimethyl-1H-pyrazol-4-yl)methyl)-1-(4-fluorophenyl)-N-methyl-1H-imidazole-5-carboxamide] |
| 98 | COc1ccc(Cl)c(CSc2nnc(C(=O)N(C)Cc3ccncc3)n2-c2ccc(F)cc2)c1F [Compound 594, 5-((6-Chloro-2-fluoro-3-methoxybenzyl)thio)-4-(4-fluorophenyl)-N-methyl-N-(pyridin-4-ylmethyl)-4H-1,2,4-triazole-3-carboxamide] |
| 98 | Cc1ccc(Cl)c(CSc2nnc(C(=O)N(C)Cc3ccncc3)n2-c2ccc(F)cc2)c1F [Compound 595, 5-((6-Chloro-2-fluoro-3-methylbenzyl)thio)-4-(4-fluorophenyl)-N-methyl-N-(pyridin-4-ylmethyl)-4H-1,2,4-triazole-3-carboxamide] |
| 100 | COc1ccc(Cl)c(CSc2ncc(C(=O)N(C)Cc3cn(C)nc3C)n2-c2ccc(F)cc2)c1F [Compound 596, 2-((6-Chloro-2-fluoro-3-methoxybenzyl)thio)-N-((1,3-dimethyl-1H-pyrazol-4-yl)methyl)-1-(4-fluorophenyl)-N-methyl-1H-imidazole-5-carboxamide] |
| 100 | Cc1ccc(Cl)c(CSc2ncc(C(=O)N(C)Cc3cn(C)nc3C)n2-c2ccc(F)cc2)c1F [Compound 597, 2-((6-Chloro-2-fluoro-3-methylbenzyl)thio)-N-((1,3-dimethyl-1H-pyrazol-4-yl)methyl)-1-(4-fluorophenyl)-N-methyl-1H-imidazole-5-carboxamide] |
| 82 | CN(Cc1cccnc1)C(=O)c1cnc(SCc2c(F)ccc(F)c2F)n1-c1ccc(F)cc1 [Compound 603, 1-(4-Fluorophenyl)-N-methyl-N-(pyridin-3-ylmethyl)-2-((2,3,6-trifluorobenzyl)thio)-1H-imidazole-5-carboxamide] |
| 98 | Fc1ccc(-n2c(COCc3ccncc3)nnc2SCc2c(F)ccc(F)c2F)cc1 [Compound 606] |
| 93 | CN(Cc1ccncc1)C(=O)c1cnc(SCc2c(F)cccc2C(F)(F)F)n1-c1ccc(F)cc1 [Compound 607, 2-((2-Fluoro-6-(trifluoromethyl)benzyl)thio)-1-(4-fluorophenyl)-N-methyl-N-(pyridin-4-ylmethyl)-1H-imidazole-5-carboxamide] |
| 86 | CN(Cc1ccncc1)C(=O)c1cnc(SCc2ccc(Cl)cc2C(F)(F)F)n1-c1ccc(F)cc1 [Compound 609, 2-((4-Chloro-2-(trifluoromethyl)benzyl)thio)-1-(4-fluorophenyl)-N-methyl-N-(pyridin-4-ylmethyl)-1H-imidazole-5-carboxamide] |
| 100 | CN(Cc1ccncc1)C(=O)c1cnc(SCc2cccc(C(F)(F)F)c2F)n1-c1ccc(F)cc1 [Compound 610, 2-((2-Fluoro-3-(trifluoromethyl)benzyl)thio)-1-(4-fluorophenyl)-N-methyl-N-(pyridin-4-ylmethyl)-1H-imidazole-5-carboxamide] |
| 99 | CN(Cc1ccncc1)C(=O)c1cnc(SCc2cc(F)ccc2F)n1-c1ccc(F)cc1 [Compound 611, 2-((2,5-Difluorobenzyl)thio)-1-(4-fluorophenyl)-N-methyl-N-(pyridin-4-ylmethyl)-1H-imidazole-5-carboxamide] |
| 100 | COc1ccc(Cl)c(CSc2ncc(C(=O)N(C)Cc3ccncc3)n2-c2ccc(F)cc2)c1F [Compound 612, 2-((6-Chloro-2-fluoro-3-methoxybenzyl)thio)-1-(4-fluorophenyl)-N-methyl-N-(pyridin-4-ylmethyl)-1H-imidazole-5-carboxamide] |
| 100 | CN(Cc1ccncc1)C(=O)c1cnc(SCc2ccccc2F)n1-c1ccc(F)cc1 [Compound 613, 2-((2-Fluorobenzyl)thio)-1-(4-fluorophenyl)-N-methyl-N-(pyridin-4-ylmethyl)-1H-imidazole-5-carboxamide] |
| 98 | CN(Cc1ccncc1)C(=O)c1cnc(SCc2cc(F)ccc2Cl)n1-c1ccc(F)cc1 [Compound 615, 2-((2-Chloro-5-fluorobenzyl)thio)-1-(4-fluorophenyl)-N-methyl-N-(pyridin-4-ylmethyl)-1H-imidazole-5-carboxamide] |
| 100 | CN(Cc1ccncc1)C(=O)c1cnc(SCc2cc(Cl)ccc2F)n1-c1ccc(F)cc1 [Compound 616, 2-((5-Chloro-2-fluorobenzyl)thio)-1-(4-fluorophenyl)-N-methyl-N-(pyridin-4-ylmethyl)-1H-imidazole-5-carboxamide] |
| 99 | CN(Cc1ccncc1)C(=O)c1cnc(SCc2c(F)ccc(F)c2Cl)n1-c1ccc(F)cc1 [Compound 617, 2-((2-Chloro-3,6-difluorobenzyl)thio)-1-(4-fluorophenyl)-N-methyl-N-(pyridin-4-ylmethyl)-1H-imidazole-5-carboxamide] |
| 94 | CN(Cc1ccncc1)C(=O)c1cnc(SCc2cc(F)c(F)cc2Cl)n1-c1ccc(F)cc1 [Compound 618, 2-((2-Chloro-4,5-difluorobenzyl)thio)-1-(4-fluorophenyl)-N-methyl-N-(pyridin-4-ylmethyl)-1H-imidazole-5-carboxamide] |
| 96 | CN(Cc1ccncc1)C(=O)c1cnc(SCc2cc(F)cc(F)c2F)n1-c1ccc(F)cc1 [Compound 619, 1-(4-Fluorophenyl)-N-methyl-N-(pyridin-4-ylmethyl)-2-((2,3,5-trifluorobenzyl)thio)-1H-imidazole-5-carboxamide] |
| 99 | Cc1ccc(F)c(CSc2ncc(C(=O)N(C)Cc3ccncc3)n2-c2ccc(F)cc2)c1Cl [Compound 620, 2-((2-Chloro-6-fluoro-3-methylbenzyl)thio)-1-(4-fluorophenyl)-N-methyl-N-(pyridin-4-ylmethyl)-1H-imidazole-5-carboxamide] |
| 98 | CN(Cc1ccncc1)C(=O)c1cnc(SCc2cccc(C(F)(F)F)c2)n1-c1ccc(F)cc1 [Compound 621, 1-(4-Fluorophenyl)-N-methyl-N-(pyridin-4-ylmethyl)-2-((3-(trifluoromethyl)benzyl)thio)-1H-imidazole-5-carboxamide] |
| 100 | Cc1ccc(Cl)c(CSc2ncc(C(=O)N(C)Cc3ccncc3)n2-c2ccc(F)cc2)c1F [Compound 622, 2-((6-Chloro-2-fluoro-3-methylbenzyl)thio)-1-(4-fluorophenyl)-N-methyl-N-(pyridin-4-ylmethyl)-1H-imidazole-5-carboxamide] |
| 100 | CCN(Cc1ccncc1)C(=O)c1cnc(SCc2c(Cl)ccc(OC)c2F)n1-c1ccc(F)cc1 [Compound 626, 2-((6-Chloro-2-fluoro-3-methoxybenzyl)thio)-N-ethyl-1-(4-fluorophenyl)-N-(pyridin-4-ylmethyl)-1H-imidazole-5-carboxamide] |
| 100 | CCN(Cc1ccncc1)C(=O)c1cnc(SCc2c(Cl)ccc(C)c2F)n1-c1ccc(F)cc1 [Compound 627, 2-((6-Chloro-2-fluoro-3-methylbenzyl)thio)-N-ethyl-1-(4-fluorophenyl)-N-(pyridin-4-ylmethyl)-1H-imidazole-5-carboxamide] |
| 100 | Cc1nn(C)cc1CN(C)C(=O)c1cnc(SCc2nc3ccccc3o2)n1-c1ccc(F)cc1 [Compound 629, 2-((Benzo[d]oxazol-2-ylmethyl)thio)-N-((1,3-dimethyl-1H-pyrazol-4-yl)methyl)-1-(4-fluorophenyl)-N-methyl-1H-imidazole-5-carboxamide] |
| 98 | CCc1noc(CSc2ncc(C(=O)N(C)Cc3cn(C)nc3C)n2-c2ccc(F)cc2)n1 [Compound 630, N-((1,3-Dimethyl-1H-pyrazol-4-yl)methyl)-2-(((3-ethyl-1,2,4-oxadiazol-5-yl)methyl)thio)-1-(4-fluorophenyl)-N-methyl-1H-imidazole-5-carboxamide] |
